Where two headings read alike, the source gives them in different places.
Tested on: S. aureus clinical isolates and S. aureus ATCC 29213
Experiment: MIC assay according to CLSI criteria, Example 2, S. aureus strains
Format: cell-based, Staphylococcus aureus
Details: Staphylococcus aureus, read-out: MIC
Description: Strains were conserved in Luria Bertani (LB) Broth (S. aureus) or Brain Heart Infusion (BHI) (S. pyogenes) supplemented with glycerol 15% (v/v) at −80° C., and reactivated by isolation on LB (S. aureus) or BHI (S. pyogenes) agar plates. Strains were cultivated in Mueller Hinton (MH) Broth-cation adjusted (S. aureus) or BHI (S. pyogenes). All strains were cultivated aerobically (microaerobically for S. pyogenes strains) at 37° C.
Bacterial cultures were stopped in their exponential growth phase and plates were inoculated with the approximate concentration of 5×10^5 cells per well. Plates were incubated at 37° C. for 18 hours (S. aureus) or 24 hours (S. pyogenes).

Measured: MIC

O=C(Nc1ccc([N+](=O)[O-])cc1Cl)c1cc(Cl)ccc1O [Niclosamide, 5-chloro-N-(2-chloro-4-nitrophenyl)-2-hydroxybenz-amide]
0.5 µg/mL: ATCC 29213 / MRSA, strain MRSA 12 | ATCC 29213 / MRSA, strain MRSA 26 | ATCC 29213 / MRSA, strain MRSA 27 | ATCC 29213 / MRSA, strain MRSA 29 | ATCC 29213 / MRSA, strain MRSA 73 | ATCC 29213 / MRSA, strain MRSA 75 | ATCC 29213 / MRSA, strain MRSA 78 | ATCC 29213 / MRSA, strain MRSA 80 | ATCC 29213 / MRSA, strain MRSA 81 | ATCC 29213 / MRSA, strain MRSA 83 | ATCC 29213 / MRSA, strain MRSA 85 | ATCC 29213 / MRSA, strain MRSA 89 | ATCC 29213 / MRSA, strain MRSA 90 | ATCC 29213 / MRSA, strain MRSA 98 | ATCC 29213 / MRSA, strain MRSA 101 | ATCC 29213 / MRSA, strain MRSA 104 | ATCC 29213 / MRSA, strain MRSA 111 | ATCC 29213 / MSSA, strain MSSA 01
0.25 µg/mL: ATCC 29213 / MRSA, strain MRSA 13 | ATCC 29213 / MRSA, strain MRSA 14 | ATCC 29213 / MRSA, strain MRSA 15 | ATCC 29213 / MRSA, strain MRSA 16 | ATCC 29213 / MRSA, strain MRSA 17 | ATCC 29213 / MRSA, strain MRSA 18 | ATCC 29213 / MRSA, strain MRSA 19 | ATCC 29213 / MRSA, strain MRSA 20 | ATCC 29213 / MRSA, strain MRSA 21 | ATCC 29213 / MRSA, strain MRSA 22 | ATCC 29213 / MRSA, strain MRSA 23 | ATCC 29213 / MRSA, strain MRSA 24 | ATCC 29213 / MRSA, strain MRSA 25 | ATCC 29213 / MRSA, strain MRSA 27b | ATCC 29213 / MRSA, strain MRSA 28 | ATCC 29213 / MRSA, strain MRSA 30 | ATCC 29213 / MRSA, strain MRSA 31 | ATCC 29213 / MRSA, strain MRSA 32 | ATCC 29213 / MRSA, strain MRSA 33 | ATCC 29213 / MRSA, strain MRSA 34 | ATCC 29213 / MRSA, strain MRSA 35 | ATCC 29213 / MRSA, strain MRSA 36 | ATCC 29213 / MRSA, strain MRSA 37 | ATCC 29213 / MRSA, strain MRSA 38 | ATCC 29213 / MRSA, strain MRSA 39 | ATCC 29213 / MRSA, strain MRSA 40 | ATCC 29213 / MRSA, strain MRSA 41 | ATCC 29213 / MRSA, strain MRSA 42 | ATCC 29213 / MRSA, strain MRSA 43 | ATCC 29213 / MRSA, strain MRSA 44 | ATCC 29213 / MRSA, strain MRSA 45 | ATCC 29213 / MRSA, strain MRSA 46 | ATCC 29213 / MRSA, strain MRSA 47 | ATCC 29213 / MRSA, strain MRSA 48 | ATCC 29213 / MRSA, strain MRSA 49 | ATCC 29213 / MRSA, strain MRSA 50 | ATCC 29213 / MRSA, strain MRSA 52 | ATCC 29213 / MRSA, strain MRSA 53 | ATCC 29213 / MRSA, strain MRSA 54 | ATCC 29213 / MRSA, strain MRSA 55 | ATCC 29213 / MRSA, strain MRSA 56 | ATCC 29213 / MRSA, strain MRSA 57 | ATCC 29213 / MRSA, strain MRSA 58 | ATCC 29213 / MRSA, strain MRSA 59 | ATCC 29213 / MRSA, strain MRSA 60 | ATCC 29213 / MRSA, strain MRSA 61 | ATCC 29213 / MRSA, strain MRSA 62 | ATCC 29213 / MRSA, strain MRSA 63 | ATCC 29213 / MRSA, strain MRSA 64 | ATCC 29213 / MRSA, strain MRSA 65 | ATCC 29213 / MRSA, strain MRSA 66 | ATCC 29213 / MRSA, strain MRSA 67 | ATCC 29213 / MRSA, strain MRSA 68 | ATCC 29213 / MRSA, strain MRSA 69 | ATCC 29213 / MRSA, strain MRSA 71 | ATCC 29213 / MRSA, strain MRSA 72 | ATCC 29213 / MRSA, strain MRSA 74 | ATCC 29213 / MRSA, strain MRSA 76 | ATCC 29213 / MRSA, strain MRSA 77 | ATCC 29213 / MRSA, strain MRSA 79 | ATCC 29213 / MRSA, strain MRSA 82 | ATCC 29213 / MRSA, strain MRSA 84 | ATCC 29213 / MRSA, strain MRSA 86 | ATCC 29213 / MRSA, strain MRSA 87 | ATCC 29213 / MRSA, strain MRSA 88 | ATCC 29213 / MRSA, strain MRSA 91 | ATCC 29213 / MRSA, strain MRSA 92 | ATCC 29213 / MRSA, strain MRSA 93 | ATCC 29213 / MRSA, strain MRSA 94 | ATCC 29213 / MRSA, strain MRSA 95 | ATCC 29213 / MRSA, strain MRSA 96 | ATCC 29213 / MRSA, strain MRSA 97 | ATCC 29213 / MRSA, strain MRSA 99 | ATCC 29213 / MRSA, strain MRSA 100 | ATCC 29213 / MRSA, strain MRSA 102 | ATCC 29213 / MRSA, strain MRSA 103 | ATCC 29213 / MRSA, strain MRSA 105 | ATCC 29213 / MRSA, strain MRSA 106 | ATCC 29213 / MRSA, strain MRSA 107 | ATCC 29213 / MRSA, strain MRSA 108 | ATCC 29213 / MRSA, strain MRSA 109 | ATCC 29213 / MRSA, strain MRSA 110 | ATCC 29213 / MRSA, strain MRSA 112 | ATCC 29213 / MRSA, strain MRSA 113 | ATCC 29213 / MSSA, strain MSSA 02 | ATCC 29213 / NEWMAN, strain Newman
0.125 µg/mL: ATCC 29213 / MRSA, strain MRSA 51 | ATCC 29213 / MRSA, strain MRSA 70

From patent publication US11331327B2, “Antibacterial use of halogenated salicylanilides” (UNION therapeutics A/S, priority 2014, dated 2022)
